Source: the supplement of paper PMC10307832

Experiments:
Assay in all cases: relative viability (nuclei count vs DMSO), 5 days (fraction); higher = more cells survive
NCI-H1648 = tested on: NCI-H1648
In short: (§1)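 For relative viability, nuclei counts in treated wells were divided by those in vehicle wells. Lung cancer cell lines had been pin-tool dosed in 1536-well plates the day after seeding and cultured for 5 days, then fixed and stained in one step (final 0.05% Triton X-100, 1% formaldehyde, 1 ug/ml Hoechst) and imaged at 4×. Doses were one drug alone or a fixed anchor-drug dose plus five library-drug doses (not always all listed) in √10 steps, and values are duplicate-plate medians.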

LCLC-97TM1 = tested on: LCLC-97TM1
In short: as §1

NCI-H596 = tested on: NCI-H596
In short: as §1

NCI-H1437 = tested on: NCI-H1437
In short: as §1

A549 = tested on: A549
In short: as §1

NCI-H2342 = tested on: NCI-H2342
In short: as §1

NCI-H1355 = tested on: NCI-H1355
In short: as §1

Calu-6 = tested on: Calu-6
In short: as §1

NCI-H1299 = tested on: NCI-H1299
In short: as §1

EBC-1 = tested on: EBC-1
In short: as §1

IA-LM = tested on: IA-LM
In short: as §1

NCI-H1703 = tested on: NCI-H1703
In short: as §1

Compound: CCNC(=O)c1noc(-c2cc(C(C)C)c(O)cc2O)c1-c1ccc(CN2CCOCC2)cc1 [Luminespib] + Nc1ncn([C@H]2C[C@H](O)[C@@H](CO)O2)c(=O)n1 [Decitabine] (partner 2 µM)
- relative viability (NCI-H1648; first compound 0.002 µM): 0.534
- relative viability (NCI-H1648; first compound 0.006325 µM): 0.569
- relative viability (NCI-H1648; first compound 0.02 µM): 0.458
- relative viability (NCI-H1648; first compound 0.06325 µM): 0.489
- relative viability (NCI-H1648; first compound 0.2 µM): 0.301
- relative viability (LCLC-97TM1; first compound 0.002 µM): 0.249
- relative viability (LCLC-97TM1; first compound 0.006325 µM): 0.258
- relative viability (LCLC-97TM1; first compound 0.06325 µM): 0.233
- relative viability (LCLC-97TM1; first compound 0.2 µM): 0.154
- relative viability (NCI-H596; first compound 0.002 µM): 1.07
- relative viability (NCI-H596; first compound 0.006325 µM): 0.887
- relative viability (NCI-H596; first compound 0.02 µM): 0.88
- relative viability (NCI-H596; first compound 0.06325 µM): 0.991
- relative viability (NCI-H596; first compound 0.2 µM): 1.01
- relative viability (NCI-H1437; first compound 0.002 µM): 0.606
- relative viability (NCI-H1437; first compound 0.006325 µM): 0.605
- relative viability (NCI-H1437; first compound 0.02 µM): 0.64
- relative viability (NCI-H1437; first compound 0.06325 µM): 0.428
- relative viability (NCI-H1437; first compound 0.2 µM): 0.229
- relative viability (A549; first compound 0.002 µM): 0.232
- relative viability (A549; first compound 0.006325 µM): 0.297
- relative viability (A549; first compound 0.02 µM): 0.191
- relative viability (A549; first compound 0.06325 µM): 0.0306
- relative viability (A549; first compound 0.2 µM): 0.0224
- relative viability (NCI-H2342; first compound 0.002 µM): 0.648
- relative viability (NCI-H2342; first compound 0.006325 µM): 0.82
- relative viability (NCI-H2342; first compound 0.02 µM): 0.546
- relative viability (NCI-H2342; first compound 0.06325 µM): 0.821
- relative viability (NCI-H2342; first compound 0.2 µM): 0.503
- relative viability (NCI-H1355; first compound 0.002 µM): 0.359
- relative viability (NCI-H1355; first compound 0.006325 µM): 0.354
- relative viability (NCI-H1355; first compound 0.02 µM): 0.334
- relative viability (NCI-H1355; first compound 0.06325 µM): 0.346
- relative viability (NCI-H1355; first compound 0.2 µM): 0.243

Compound: CN1CCN(CCOc2cc(OC3CCOCC3)c3c(Nc4c(Cl)ccc5c4OCO5)ncnc3c2)CC1 [Saracatinib] + Nc1ncn([C@H]2C[C@H](O)[C@@H](CO)O2)c(=O)n1 [Decitabine] (partner 2 µM)
- relative viability (NCI-H1648; first compound 0.02 µM): 0.534
- relative viability (NCI-H1648; first compound 0.2 µM): 0.367
- relative viability (NCI-H1648; first compound 0.6325 µM): 0.647
- relative viability (NCI-H1648; first compound 2 µM): 0.391
- relative viability (LCLC-97TM1; first compound 0.02 µM): 0.244
- relative viability (LCLC-97TM1; first compound 0.2 µM): 0.18
- relative viability (LCLC-97TM1; first compound 0.6325 µM): 0.215
- relative viability (LCLC-97TM1; first compound 2 µM): 0.178
- relative viability (NCI-H596; first compound 0.02 µM): 0.912
- relative viability (NCI-H596; first compound 0.2 µM): 0.793
- relative viability (NCI-H596; first compound 0.6325 µM): 0.951
- relative viability (NCI-H596; first compound 2 µM): 0.821
- relative viability (NCI-H1437; first compound 0.02 µM): 0.608
- relative viability (NCI-H1437; first compound 0.2 µM): 0.601
- relative viability (NCI-H1437; first compound 0.6325 µM): 0.64
- relative viability (NCI-H1437; first compound 2 µM): 0.622
- relative viability (A549; first compound 0.02 µM): 0.266
- relative viability (A549; first compound 0.6325 µM): 0.279
- relative viability (A549; first compound 2 µM): 0.237
- relative viability (NCI-H2342; first compound 0.02 µM): 0.791
- relative viability (NCI-H2342; first compound 0.2 µM): 0.677
- relative viability (NCI-H2342; first compound 0.6325 µM): 0.673
- relative viability (NCI-H2342; first compound 2 µM): 0.656
- relative viability (NCI-H1355; first compound 0.02 µM): 0.345
- relative viability (NCI-H1355; first compound 0.2 µM): 0.35
- relative viability (NCI-H1355; first compound 0.6325 µM): 0.358
- relative viability (NCI-H1355; first compound 2 µM): 0.354

Compound: Cc1csc(=NC2CCCCC2)n1/N=C/c1ccc(O)c(O)c1O [MIM1] + O=C(c1cc(Cc2n[nH]c(=O)c3ccccc23)ccc1F)N1CCN(C(=O)C2CC2)CC1 [Olaparib] (partner 8 µM)
- relative viability (NCI-H1648; first compound 0.2 µM): 1
- relative viability (NCI-H1648; first compound 0.6325 µM): 1.03
- relative viability (NCI-H1648; first compound 2 µM): 0.697
- relative viability (NCI-H1648; first compound 6.325 µM): 0.611
- relative viability (NCI-H1648; first compound 20 µM): 0.298
- relative viability (LCLC-97TM1; first compound 0.2 µM): 0.436
- relative viability (LCLC-97TM1; first compound 0.6325 µM): 0.46
- relative viability (LCLC-97TM1; first compound 2 µM): 0.343
- relative viability (LCLC-97TM1; first compound 6.325 µM): 0.24
- relative viability (LCLC-97TM1; first compound 20 µM): 0.0564
- relative viability (NCI-H596; first compound 0.2 µM): 0.741
- relative viability (NCI-H596; first compound 0.6325 µM): 0.73
- relative viability (NCI-H596; first compound 2 µM): 0.694
- relative viability (NCI-H596; first compound 6.325 µM): 0.626
- relative viability (NCI-H596; first compound 20 µM): 0.491
- relative viability (NCI-H1437; first compound 0.2 µM): 0.615
- relative viability (NCI-H1437; first compound 0.6325 µM): 0.644
- relative viability (NCI-H1437; first compound 2 µM): 0.58
- relative viability (NCI-H1437; first compound 6.325 µM): 0.192
- relative viability (NCI-H1437; first compound 20 µM): 0.206
- relative viability (A549; first compound 0.2 µM): 0.277
- relative viability (A549; first compound 0.6325 µM): 0.282
- relative viability (A549; first compound 2 µM): 0.304
- relative viability (A549; first compound 6.325 µM): 0.181
- relative viability (A549; first compound 20 µM): 0.0693
- relative viability (Calu-6; first compound 0.6325 µM): 0.563
- relative viability (Calu-6; first compound 2 µM): 0.614
- relative viability (Calu-6; first compound 6.325 µM): 0.288
- relative viability (Calu-6; first compound 20 µM): 0.152
- relative viability (NCI-H2342; first compound 0.2 µM): 0.432
- relative viability (NCI-H2342; first compound 0.6325 µM): 0.386
- relative viability (NCI-H2342; first compound 2 µM): 0.42
- relative viability (NCI-H2342; first compound 6.325 µM): 0.395
- relative viability (NCI-H2342; first compound 20 µM): 0.571
- relative viability (NCI-H1299; first compound 0.2 µM): 0.942
- relative viability (NCI-H1299; first compound 0.6325 µM): 0.954
- relative viability (NCI-H1299; first compound 2 µM): 1.03
- relative viability (NCI-H1299; first compound 6.325 µM): 0.928
- relative viability (NCI-H1299; first compound 20 µM): 0.728
- relative viability (EBC-1; first compound 0.2 µM): 0.559
- relative viability (EBC-1; first compound 0.6325 µM): 0.742
- relative viability (EBC-1; first compound 2 µM): 0.673
- relative viability (EBC-1; first compound 6.325 µM): 0.422
- relative viability (EBC-1; first compound 20 µM): 0.338
- relative viability (NCI-H1355; first compound 0.2 µM): 0.731
- relative viability (NCI-H1355; first compound 0.6325 µM): 0.664
- relative viability (NCI-H1355; first compound 2 µM): 0.803
- relative viability (NCI-H1355; first compound 6.325 µM): 0.603
- relative viability (NCI-H1355; first compound 20 µM): 0.297
- relative viability (IA-LM; first compound 0.2 µM): 0.947
- relative viability (IA-LM; first compound 0.6325 µM): 0.854
- relative viability (IA-LM; first compound 2 µM): 0.829
- relative viability (IA-LM; first compound 6.325 µM): 0.518
- relative viability (IA-LM; first compound 20 µM): 0.192
- relative viability (NCI-H1703; first compound 0.2 µM): 0.54
- relative viability (NCI-H1703; first compound 0.6325 µM): 0.738
- relative viability (NCI-H1703; first compound 2 µM): 0.509
- relative viability (NCI-H1703; first compound 6.325 µM): 0.369
- relative viability (NCI-H1703; first compound 20 µM): 0.0913
